US20110086759A1, “CHEMICAL COMPOUNDS” (SYNGENTA CROP PROTECTION, INC., priority 2007, published 2011)

Assays:
Format in all cases: in vivo
Setaria faberi (SETFA) [1] = experiment: Post-emergence biological efficacy, glasshouse pot test; settings: 312 h
Procedure, shortened: (§1)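 Pot-grown weeds were sprayed 8 days after sowing with test compound in acetone/water (50:50) with 0.5% Tween 20 at 1000 or 250 g/ha. Glasshouse at 24/16° C day/night, 14 h light, 65% humidity. Damage scored 0-100 (100 = total damage) after 13 days.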

Solanum nigrum (SOLNI) [2] = experiment: as above; settings: 312 h
Procedure, shortened: as §1

[3] = tested on: Alopecurus myosuroides (ALOMY); experiment: as above; settings: 312 h
Procedure, shortened: as §1

[4] = tested on: Amaranthus retoflexus (AMARE); experiment: as above; settings: Amaranthus retroflexus, 312 h
Procedure, shortened: as §1

[5] = tested on: Ipomea hederaceae (IPOHE); experiment: as above; settings: Ipomoea hederacea, 312 h
Procedure, shortened: as §1

[6] = tested on: Echinochloa crus-galli (ECHCG); experiment: as above; settings: 312 h
Procedure, shortened: as §1

Setaria faberi (SETFA) [7] = experiment: Pre-emergence biological efficacy, glasshouse pot test; settings: 312 h
Procedure, shortened: (§2)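 Visual phytotoxicity (0 no damage, 100 total damage) assessed 13 d after treatment. Soil-sown pots sprayed one day post-sowing; dose 1000 or 250 g/ha; formulation in acetone/water 50:50, 0.5% Tween 20.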

Solanum nigrum (SOLNI) [8] = experiment: as above; settings: 312 h
Procedure, shortened: as §2

[9] = tested on: Alopecurus myosuroides (ALOMY); experiment: as above; settings: 312 h
Procedure, shortened: as §2

[10] = tested on: Amaranthus retoflexus (AMARE); experiment: as above; settings: Amaranthus retroflexus, 312 h
Procedure, shortened: as §2

[11] = tested on: Ipomea hederaceae (IPOHE); experiment: as above; settings: Ipomoea hederacea, 312 h
Procedure, shortened: as §2

[12] = tested on: Echinochloa crus-galli (ECHCG); experiment: as above; settings: 312 h
Procedure, shortened: as §2

[13] = post-emergence, 1,000 g/ha, evaluated after 13 days (100=total damage; 0=no damage), read-out: Percentage damage caused to weed species, SETFA
[14] = post-emergence, 1,000 g/ha, evaluated after 13 days (100=total damage; 0=no damage), read-out: Percentage damage caused to weed species, SOLNI
[15] = post-emergence, 1,000 g/ha, evaluated after 13 days (100=total damage; 0=no damage), read-out: Percentage damage caused to weed species, ALOMY
[16] = post-emergence, 1,000 g/ha, evaluated after 13 days (100=total damage; 0=no damage), read-out: Percentage damage caused to weed species, AMARE
[17] = post-emergence, 1,000 g/ha, evaluated after 13 days (100=total damage; 0=no damage), read-out: Percentage damage caused to weed species, IPOHE
[18] = post-emergence, 1,000 g/ha, evaluated after 13 days (100=total damage; 0=no damage), read-out: Percentage damage caused to weed species, ECHCG
[19] = pre-emergence, 1,000 g/ha, evaluated after 13 days (100=total damage; 0=no damage), read-out: Percentage damage SETFA
[20] = pre-emergence, 1,000 g/ha, evaluated after 13 days (100=total damage; 0=no damage), read-out: Percentage damage SOLNI
[21] = pre-emergence, 1,000 g/ha, evaluated after 13 days (100=total damage; 0=no damage), read-out: Percentage damage ALOMY
[22] = pre-emergence, 1,000 g/ha, evaluated after 13 days (100=total damage; 0=no damage), read-out: Percentage damage AMARE
[23] = pre-emergence, 1,000 g/ha, evaluated after 13 days (100=total damage; 0=no damage), read-out: Percentage damage IPOHE
[24] = pre-emergence, 1,000 g/ha, evaluated after 13 days (100=total damage; 0=no damage), read-out: Percentage damage ECHCG
[25] = Rate 1,000 g/ha, post-emergence spray, evaluated after 13 days (100=total damage to plant; 0=no damage to plant), read-out: Percentage damage caused to weed species, post-emergence, SETFA
[26] = Rate 1,000 g/ha, post-emergence spray, evaluated after 13 days (100=total damage to plant; 0=no damage to plant), read-out: Percentage damage caused to weed species, post-emergence, SOLNI
[27] = Rate 1,000 g/ha, post-emergence spray, evaluated after 13 days (100=total damage to plant; 0=no damage to plant), read-out: Percentage damage caused to weed species, post-emergence, ALOMY
[28] = Rate 1,000 g/ha, post-emergence spray, evaluated after 13 days (100=total damage to plant; 0=no damage to plant), read-out: Percentage damage caused to weed species, post-emergence, AMARE
[29] = Rate 1,000 g/ha, post-emergence spray, evaluated after 13 days (100=total damage to plant; 0=no damage to plant), read-out: Percentage damage caused to weed species, post-emergence, IPOHE
[30] = Rate 1,000 g/ha, post-emergence spray, evaluated after 13 days (100=total damage to plant; 0=no damage to plant), read-out: Percentage damage caused to weed species, post-emergence, ECHCG
[31] = pre-emergence, rate 1,000 g/ha, evaluated after 13 days (100=total damage to plant; 0=no damage), read-out: Percentage damage caused to weed species, SETFA
[32] = pre-emergence, rate 1,000 g/ha, evaluated after 13 days (100=total damage to plant; 0=no damage), read-out: Percentage damage caused to weed species, SOLNI
[33] = pre-emergence, rate 1,000 g/ha, evaluated after 13 days (100=total damage to plant; 0=no damage), read-out: Percentage damage caused to weed species, ALOMY
[34] = pre-emergence, rate 1,000 g/ha, evaluated after 13 days (100=total damage to plant; 0=no damage), read-out: Percentage damage caused to weed species, AMARE
[35] = pre-emergence, rate 1,000 g/ha, evaluated after 13 days (100=total damage to plant; 0=no damage), read-out: Percentage damage caused to weed species, IPOHE
[36] = pre-emergence, rate 1,000 g/ha, evaluated after 13 days (100=total damage to plant; 0=no damage), read-out: Percentage damage caused to weed species, ECHCG

SMILES | pest or weed control at 1000 g/ha (Setaria faberi (SETFA) [1]; [13]) | pest or weed control at 1000 g/ha (Solanum nigrum (SOLNI) [2]; [14]) | pest or weed control at 1000 g/ha [3, 15] | pest or weed control at 1000 g/ha [4, 16] | pest or weed control at 1000 g/ha [5, 17] | pest or weed control at 1000 g/ha [6, 18] | pest or weed control at 1000 g/ha (Setaria faberi (SETFA) [7]; [19]) | pest or weed control at 1000 g/ha (Solanum nigrum (SOLNI) [8]; [20]) | pest or weed control at 1000 g/ha (Setaria faberi (SETFA) [1]; [25]) | pest or weed control at 1000 g/ha (Solanum nigrum (SOLNI) [2]; [26]) | pest or weed control at 1000 g/ha [3, 27] | pest or weed control at 1000 g/ha [4, 28] | pest or weed control at 1000 g/ha [5, 29] | pest or weed control at 1000 g/ha [6, 30] | pest or weed control at 1000 g/ha (Setaria faberi (SETFA) [7]; [31]) | pest or weed control at 1000 g/ha (Solanum nigrum (SOLNI) [8]; [32]) | pest or weed control at 1000 g/ha [9, 33] | pest or weed control at 1000 g/ha [10, 34] | pest or weed control at 1000 g/ha [11, 35] | pest or weed control at 1000 g/ha [12, 36] | also measured
COC(=O)c1nc(C2CC2)nc(N[C@@H](C)C(=O)OCc2ccccc2)c1Cl [4-272 (S), 5-Chloro-2-cyclopropyl-6-methoxycarbonyl-4-[(1S)-1-(phenylmethoxy-carbonyl)ethylamino]-pyrimidine] | 60% | 80% | 20% | 100% | 60% | 30% | 20% | 80% |  |  |  |  |  |  |  |  |  |  |  |  | pest or weed control at 1000 g/ha [9, 21]: 10%; pest or weed control at 1000 g/ha [10, 22]: 70%; pest or weed control at 1000 g/ha [11, 23]: 70%; pest or weed control at 1000 g/ha [12, 24]: 30%
COC(=O)c1nc(C2CC2)nc(N(C)Cc2ccc(C)cc2)c1Cl [Compound 5-73, 5-Chloro-2-cyclopropyl-6-methoxycarbonyl-4-[N-methyl-N-(4-methylphenyl)-methylamino]-pyrimidine] |  |  |  |  |  |  |  |  | 50% | 70% | 10% | 100% | 100% | 10% | 0% | 20% | 0% | 80% | 30% | 0% | 
CCN(Cc1c(F)cccc1Cl)c1nc(C2CC2)nc(C(=O)OC)c1Cl [Compound 6-102, 5-Chloro-4-[N-(2-chloro-6-fluorophenylmethyl)-N-ethyl-amino]-2-cyclopropyl-6-methoxycarbonyl-pyrimidine] |  |  |  |  |  |  |  |  | 80% | 90% | 20% | 100% | 90% | 70% | 0% | 60% | 0% | 100% | 60% | 0% | 
COC(=O)c1nc(C2CC2)nc(NC2(c3ccc(Cl)cc3Cl)CC2)c1Cl [Compound 4-6] | 0% | 40% | 20% | 100% | 60% | 20% | 0% | 20% |  |  |  |  |  |  |  |  |  |  |  |  | pest or weed control at 1000 g/ha [9, 21]: 0%; pest or weed control at 1000 g/ha [10, 22]: 40%; pest or weed control at 1000 g/ha [11, 23]: 10%; pest or weed control at 1000 g/ha [12, 24]: 0%
COC(=O)c1nc(C2CC2)nc(N(C)Cc2ccc(C(F)(F)F)cc2)c1Cl [Compound 5-77, 5-Chloro-2-cyclopropyl-6-methoxycarbonyl-4-[N-methyl-N-(4-trifluoromethyl-phenyl)methyl-amino]pyrimidine] |  |  |  |  |  |  |  |  | 50% | 100% | 20% | 100% | 100% | 40% | 0% | 20% | 0% | 90% | 20% | 0% | 
COC(=O)c1nc(-c2ccc(F)c(F)c2F)nc(NCc2ccco2)c1Cl [Compound 247-48, 5-Chloro-4-(furan-2-ylmethylamino)-6-methoxycarbonyl-2-(2,3,4-trifluoro-phenyl)pyrimidine] |  |  |  |  |  |  |  |  | 40% | 90% | 30% | 100% | 60% | 60% | 20% | 40% | 10% | 90% | 40% | 10% | 
COC(=O)c1nc(C2CC2)nc(NCCCN2CCCC2=O)c1Cl [Compound 4-246, 5-Chloro-2-cyclopropyl-6-methoxycarbonyl-4-[3-(2-oxo-pyrrolidin-1-yl)propylamino]-pyrimidine] | 30% | 50% | 0% | 100% | 60% | 0% | 0% | 20% |  |  |  |  |  |  |  |  |  |  |  |  | pest or weed control at 1000 g/ha [9, 21]: 0%; pest or weed control at 1000 g/ha [10, 22]: 80%; pest or weed control at 1000 g/ha [11, 23]: 30%; pest or weed control at 1000 g/ha [12, 24]: 0%
COC(=O)c1nc(C2CC2)nc(NC(C)(C)c2ccccc2)c1Cl [Compound 4-189, 5-Chloro-2-cyclopropyl-6-methoxycarbonyl-4-(1-methyl-1-phenyl-ethylamino)-pyrimidine] | 50% | 90% | 20% | 100% | 100% | 0% | 0% | 50% |  |  |  |  |  |  |  |  |  |  |  |  | pest or weed control at 1000 g/ha [9, 21]: 20%; pest or weed control at 1000 g/ha [10, 22]: 60%; pest or weed control at 1000 g/ha [11, 23]: 40%; pest or weed control at 1000 g/ha [12, 24]: 0%
COC(=O)c1nc(C2CC2)nc(N(CC=C(C)C)Cc2ccccc2C(F)(F)F)c1Cl [Compound 152-75, 5-Chloro-2-cyclopropyl-6-methoxycarbonyl-4-[N-(3-methylbut-2-en-1-yl)-N-(2-trifluoromethyl-phenylmethyl)-amino]pyrimidine] |  |  |  |  |  |  |  |  | 10% | 60% | 10% | 50% | 60% | 0% | 40% | 20% | 20% | 80% | 80% | 10% | 
